From ChEMBL document CHEMBL1201862, “PubChem BioAssay data set” (2004)
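Briefly, cells in 96-well plates were exposed to five compound concentrations for 48 h, and endpoints were estimated by linear interpolation. GI50 is the concentration that inhibits growth by half.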 Activity calls are given as the source filed them. Rule as the data show it: active = GI50 up to about 1.1 µM and inactive = higher.

Legend:
Assay in all cases: NCI tumour cell line growth inhibition, 48 h
[1] = system: SNB-75
[2] = system: EKVX
[3] = system: NCI-H460
[4] = system: RXF 393
[5] = system: HCC 2998
[6] = system: HCT-15
[7] = system: SF-539
[8] = system: HOP-92
[9] = system: SW-620
[10] = system: KM12
[11] = system: SF-295
[12] = system: SN12C
[13] = system: HOP-62
[14] = system: MOLT-4
[15] = system: U-251
[16] = system: TK-10
[17] = system: SF-268
[18] = system: NCI-H226

Measured: GI50

CCC(C)(C)C(=O)O[C@H]1C[C@@H](C)C=C2C=C[C@H](C)[C@H](CC[C@@H]3C[C@@H](O)CC(=O)O3)[C@H]21 [SIMVASTATIN]
1.12 µM: [6]
active: [1] 0.658 µM | [2] 0.948 µM | [4] 0.811 µM | [8] < 0.003 µM | [15] 0.766 µM
inactive: [3] 9.08 µM | [5] 16.5 µM | [7] 9.04 µM | [9] 9.59 µM | [10] 8.45 µM | [11] 1.13 µM | [12] 1.51 µM | [13] 9.2 µM | [14] > 30 µM

C#CCC(O)c1ccccc1C(O)CC#C (stereo not drawn)
> 100 µM: [6]
inactive: [1] 28.2 µM | [2] > 100 µM | [3] > 100 µM | [4] 29 µM | [5] 89.3 µM | [8] 30.8 µM | [9] > 100 µM | [16] 97.5 µM | [10] > 100 µM | [11] > 100 µM | [12] > 100 µM | [13] > 100 µM | [14] > 100 µM

CC1(C)COC(c2cccnc2/C=N/O)=N1
inactive: [1] > 100 µM | [2] > 100 µM | [3] > 100 µM | [17] > 100 µM | [4] > 100 µM | [7] > 100 µM | [8] > 100 µM | [9] 67.8 µM | [16] > 100 µM | [10] > 100 µM | [11] > 100 µM | [12] > 100 µM | [13] > 100 µM | [14] > 100 µM | [18] > 100 µM | [15] > 100 µM
> 100 µM: [6]

C=CCC12CCC(=O)C=C1CCC1(C2)OCCO1 (stereo not drawn)
inactive: [1] > 100 µM | [2] > 100 µM | [3] > 100 µM | [17] > 100 µM | [4] > 100 µM | [5] > 100 µM | [7] > 100 µM | [9] > 100 µM | [16] > 100 µM | [10] > 100 µM | [12] > 100 µM | [13] > 100 µM | [14] > 100 µM | [18] > 100 µM | [15] > 100 µM
> 100 µM: [6]

Oc1ccc2ccccc2c1/N=N/c1ccc(F)cc1
> 100 µM: [6]
inactive: [1] > 100 µM | [3] > 100 µM | [17] > 100 µM | [4] > 100 µM | [5] > 100 µM | [7] > 100 µM | [8] > 100 µM | [9] > 100 µM | [16] > 100 µM | [10] 72.4 µM | [11] > 100 µM | [12] 42.7 µM | [13] > 100 µM | [14] > 100 µM | [15] > 100 µM

N#Cc1cc([N+](=O)[O-])ccc1NC(=O)C(=O)C(C(=O)/C=C/c1ccccc1)C1OC(=O)c2ccccc21 (stereo not drawn)
inactive: [1] > 100 µM | [2] > 100 µM | [3] > 100 µM | [17] > 100 µM | [4] 60.5 µM | [5] > 100 µM | [7] > 100 µM | [8] > 100 µM | [9] > 100 µM | [16] > 100 µM | [10] > 100 µM | [11] > 100 µM | [12] > 100 µM | [13] > 100 µM | [18] > 100 µM | [15] > 100 µM
> 100 µM: [6]

Cc1cc(N(CCC#N)CCC#N)ccc1/C=C1N=C(/C=C\c2ccccc2)N(NC(=O)CC(=O)Nc2ccccc2Cl)C\1=O
> 100 µM: [6]
inactive: [1] > 100 µM | [3] > 100 µM | [17] > 100 µM | [7] > 100 µM | [8] > 100 µM | [9] > 100 µM | [16] > 100 µM | [10] > 100 µM | [11] > 100 µM | [12] > 100 µM | [13] > 100 µM | [14] > 100 µM | [18] > 100 µM | [15] > 100 µM

N#CC(C#N)c1ccc(C(=O)N2CCC[C@H]2CO)cc1
inactive: [1] > 100 µM | [2] > 100 µM | [3] > 100 µM | [17] > 100 µM | [4] > 100 µM | [5] > 100 µM | [7] > 100 µM | [8] 58.2 µM | [9] > 100 µM | [16] > 100 µM | [10] > 100 µM | [11] > 100 µM | [12] > 100 µM | [13] > 100 µM | [14] > 100 µM | [15] > 100 µM
> 100 µM: [6]

O=C(O)[C@@H]1OCCOCCO[C@@H](C(=O)O)[C@H](C(=O)O)OCCOCCO[C@H]1C(=O)O
> 55.8 µM: [6]
inactive: [1] 97.9 µM | [2] > 100 µM | [3] > 64.4 µM | [17] > 100 µM | [5] > 100 µM | [7] > 100 µM | [8] > 100 µM | [9] > 50.1 µM | [16] > 100 µM | [10] > 100 µM | [11] > 100 µM | [12] > 100 µM | [13] > 100 µM | [14] > 64.3 µM | [18] > 100 µM | [15] > 42.1 µM

CCOP(=O)(OCC)OC(C#N)c1ccc(-c2ccccc2)cc1 (stereo not drawn)
18 µM: [6]
inactive: [1] 27.7 µM | [2] 49 µM | [3] 20.5 µM | [17] 18.2 µM | [5] 28.5 µM | [7] 20.8 µM | [8] 14.4 µM | [9] 13.7 µM | [16] 30.5 µM | [10] 18.2 µM | [11] 70.6 µM | [12] 19 µM | [13] 34.5 µM | [14] 14.2 µM | [18] 31.6 µM | [15] 15.2 µM

c1ccc(SC2(Sc3ccccc3)CCCC2)cc1
inactive: [1] > 100 µM | [2] > 100 µM | [3] > 100 µM | [17] > 100 µM | [4] > 100 µM | [7] > 100 µM | [8] 71.1 µM | [9] > 100 µM | [16] > 100 µM | [10] > 100 µM | [11] > 100 µM | [12] > 100 µM | [13] > 100 µM | [14] > 100 µM | [15] > 100 µM
> 100 µM: [6]

O=c1cccccc1NCCCCCCCCCNc1cccccc1=O
inactive: [1] 17.9 µM | [2] 4.56 µM | [3] 9.51 µM | [17] 14.1 µM | [4] 22.5 µM | [5] 13.3 µM | [7] 6.68 µM | [8] 18.7 µM | [9] 18.6 µM | [10] 16.1 µM | [11] 9.64 µM | [12] 21 µM | [13] 15.1 µM | [14] 5.75 µM | [18] 15.7 µM | [15] 10.6 µM
12.2 µM: [6]

COc1ccc(/C=C\c2cc(OC)c(O[Si](C)(C)C(C)(C)C)c(OC)c2)cc1
inactive: [1] 64.9 µM | [2] 70 µM | [3] 33 µM | [17] 45.5 µM | [5] 26.1 µM | [7] 37.8 µM | [8] 28.3 µM | [9] 33.3 µM | [10] 47.2 µM | [12] 39.1 µM | [13] > 100 µM | [14] 15.8 µM | [18] 31.8 µM | [15] 19.4 µM

N#CC(C(=O)C(N)=O)c1ccccc1Cl (stereo not drawn)
inactive: [1] > 100 µM | [2] > 100 µM | [3] > 100 µM | [17] > 100 µM | [4] > 100 µM | [5] > 100 µM | [7] > 100 µM | [9] > 100 µM | [16] > 100 µM | [10] > 100 µM | [11] > 100 µM | [12] > 100 µM | [14] > 100 µM | [18] > 100 µM | [15] > 100 µM
> 100 µM: [6]

CC(=O)OC1CC2(c3ccccc3)C(=O)c3ccccc3N2O1 (stereo not drawn)
inactive: [1] > 100 µM | [2] 78.3 µM | [17] > 100 µM | [4] > 100 µM | [5] > 100 µM | [7] > 100 µM | [8] 65.8 µM | [9] > 100 µM | [11] > 100 µM | [12] > 100 µM | [13] > 100 µM | [14] > 100 µM | [18] > 100 µM | [15] > 100 µM
> 100 µM: [6]

CNS(=O)(=O)NNS(=O)(=O)c1ccc(OC)cc1
inactive: [1] > 100 µM | [2] > 100 µM | [3] > 100 µM | [17] > 100 µM | [4] > 100 µM | [5] > 100 µM | [7] > 100 µM | [9] > 100 µM | [10] > 100 µM | [11] > 100 µM | [13] > 100 µM | [14] > 100 µM | [15] > 100 µM
> 100 µM: [6]

CC1=C(C(=O)O)N2C(=O)[C@@H](NC(=O)C(c3ccccc3)N3CSC(=S)N(C(C)C)C3)C2SC1 (stereo partly drawn)
inactive: [1] > 100 µM | [2] > 100 µM | [3] > 100 µM | [7] > 100 µM | [8] > 100 µM | [16] > 100 µM | [10] > 100 µM | [11] > 100 µM | [12] > 100 µM | [13] > 100 µM | [14] > 100 µM | [15] > 100 µM
> 100 µM: [6]

COc1cccc2[s+]snc12
inactive: [1] 69.3 µM | [2] > 100 µM | [3] 68.4 µM | [17] 34.1 µM | [4] 67 µM | [5] > 100 µM | [7] 35.8 µM | [9] 29.4 µM | [16] > 100 µM | [10] 59.6 µM | [11] 46.3 µM | [12] 35.5 µM | [13] 61.7 µM | [14] 29.7 µM | [18] > 100 µM | [15] > 10 µM
42.4 µM: [6]
